What was measured:
[1] = test system: mouse bone marrow cells in culture; conditions: under stimulatory influence of serum from endotoxin-treated mice; cited from earlier work
Balb/C female mice [2] = assay: Hematopoietic recovery after cyclophosphamide in mice (spleen weight, blood cell counts); format: in vivo, mouse; conditions: for Neutrophils / peripheral total white blood cells: Ex 37: day 7 after CP, 5 μmoles/mouse/day i.p. 6 days, vs saline
Description: Twenty-four hours later and each day thereafter for a total of 6 days, mice were given a 0.4 ml i.p. injection of either physiological saline (controls), guanine (5 μmoles/mouse/day), or guanosine (5 μmoles/mouse/day). On day 7 all 10 mice in each of the three groups were bled, and then sacrificed by cervical dislocation. Spleens were removed and weighed, and complete blood cell counts performed.
Twenty-four hours later and each day thereafter for a total of 6 days, mice were given a 0.4 ml i.p injection of either physiological saline (controls), Tween 80 (0.2%), guanosine (5 μmoles/mouse/day in 0.2% Tween 80), or 2.5 μmoles per mouse per day of one of the following acylated derivatives of guanosine in 0.2% Tween 80: triacetylguanosine, octanoylguanosine, lauroylguanosine, or palmitoylguanosine. On day 7 following CP administration all 10 animals from each of the 7 groups were bled, and then sacrificed by cervical dislocation. Spleens were removed and weighed, and complete blood counts performed.
Twenty-four hours later treatment was begun. Mice were given a 0.4 ml i.p. injection of either physiological saline (controls), Tween 80 (0.2%), or palmitoylguanosine (5 μmoles/mouse/day in 0.2% Tween 80). The timing of the treatments was varied within the groups. The control group was given saline on days 1-6. The mice receiving Tween 80 were treated either on days 1-4, 4-6 or 1-6. Palmitoylguanosine-treated mice were treated either on days 1-2, 1-4, 3-5, 4-6 or 1-6. If a group of mice received no Tween 80 or palmitoylguanosine on a given day, saline was administered by i.p. injection. Thus, there were 9 groups of 9 animals in all. On day 7 following CP administration all of the animals were bled and then sacrificed by cervical dislocation. Spleens were removed and weighed, and complete blood cell counts performed.
Twenty-four hours later and each day thereafter for a total of 6 days, mice were given a 0.4 ml i.p. injection of either physiological saline (controls), Tween 80 (0.5%), or one of three different doses of octanoylguanosine (0.5, 2.5, or 5 μmoles/mouse/day in 0.5% Tween 80). On day 7 following CP administration all 9 animals from each of the […] were bled and then sacrificed by cervical dislocation. Spleens were removed and weighed, and complete blood cell counts performed.
Twenty-four hours later and each day thereafter for a total of 6 days, mice were given a 0.4 ml i.p. injection of either physiological saline (controls), Tween 80 (0.5%), or octanoylguanosine (5.0 μmoles/mouse/day in 0.5% Tween 80). On day 7 following CP administration all 10 animals from each of the 3 groups were bled and then sacrificed by cervical dislocation. Spleens were removed, weighed, and fixed in 10% formalin for later histological examination. Complete blood cell counts were performed on the collected blood.
Twenty-four hours later and each day thereafter for a total of 6 days, mice were given a 0.4 ml i.p. injection of either physiological saline (controls), benzoylguanosine (2.5 μmoles/mouse/day in 0.2% Tween 80), or palmitoylguanosine (2.5 μmoles/mouse/day in 0.2% Tween 80). On days 7 and 10 following CP administration 8 animals from each of the 3 groups were bled and then were sacrificed by cervical dislocation. Spleens were removed and weighed, and complete blood cell counts performed.
Twenty four hours later and each day thereafter for a total of 4 or 6 days, mice were given a 0.4 ml i.p. injection of either physiological saline (controls), palmitoyldeoxyinosine (2.5 μmoles/mouse), or palmitoyl-xanthosine (2.5 μmoles/mouse). On days 5 and 7 following CP administration 6 of the 12 animals in each of the 3 groups were bled and then sacrificed by cervical dislocation. Spleens were removed and weighed, and complete blood cell counts performed.

[3] = test system: human myeloid leukemia cell line (HL-60); conditions: incubation of HL-60 cells; cited from earlier work
Balb/C female mice [4] = assay: Hematopoietic recovery after cyclophosphamide in mice (spleen weight, blood cell counts); format: in vivo, mouse
[5] = test system: Normal Balb/C female mice; assay: Hematopoiesis in normal mice; format: in vivo, mouse; conditions: Ex 56: fifth day
Description: Normal, otherwise untreated, female Balb/C mice weighing approximately 20 grams each received a total of 4 or 9 0.4 ml intraperitoneal injections (one per day) of either Tween-80 (0.2%) (controls), palmitoylguanosine ([…]), or palmitoyldeoxyinosine ([…]). Twenty-four hours after the 4th or 9th treatment, groups of 5 or 6 animals from each of the 3 groups were bled and then sacrificed by cervical dislocation. Spleens were removed and weighed, and complete blood cell counts performed.
Normal Balb/C female mice weighing approximately 20 grams each were given a daily 0.4 ml i.p. injection of either physiological saline (controls), palmitoylguanosine (2.6 μmoles/mouse), palmitoyldeoxyguanosine (2.6 μmoles/mouse), monopalmitoylguanosine 2′,3′-acyclic dialcohol (2.6 μmoles/mouse), and palmitoyl-8-bromoguanosine (2.6 μmoles/mouse) for 4 days. On the fifth day all 3 animals in each of the 5 groups were bled and then sacrificed by cervical dislocation. Spleens were removed and weighed, and complete blood cell counts performed. Femoral bone marrow from each mouse was collected and a differential cell count performed on marrow smears.

F344 male rats = assay: Recovery of blood cell counts in rats after cyclophosphamide; format: in vivo, rat
Description: Cyclophosphamide (CP) (40 mg/kg, i.p.) was administered to 16 F344 male rats weighing approximately 200 grams each. Twenty-four hours later and each day thereafter rats were given a 0.5 ml i.p. injection of either physiological saline (controls), or palmitoyldeoxyguanosine at a dose of 10 μmoles/rat. On days 5, 7 and 10 following CP administration all 8 animals from both groups were bled and complete blood cell counts performed. On day 10 all of the rats were sacrificed and their spleens removed and weighed.

Balb/C female mice [6] = assay: Hematopoietic recovery after 5-fluorouracil in mice; format: in vivo, mouse
Description: 5-fluorouracil (5-FU) (150 mg/kg, i.p.) was administered to forty Balb/C female mice weighing approximately 20 grams each. Twenty-four hours later and each day thereafter for a total of 8 days, mice were given a 0.4 ml i.p. injection of either physiological saline (controls) or 5′-O-palmitoylguanosine (2.5 μmoles/mouse/day in 0.2% Tween 80). On days 7 and 14 following 5-FU administration half of the animals from each group were bled and then were sacrificed by cervical dislocation. Spleens were removed and weighed, and complete blood cells counts performed.
5-fluorouracil (5-FU) (150 mg/kg, i.p.) was administered to fifty-four Balb/C female mice weighing approximately 20 grams each. Twenty-four hours later and each day thereafter for a total of 7 days, mice were given a 0.4 ml i.p. injection of either physiological saline (controls) or palmitoylguanosine (2.5 μmoles/mouse/day in 0.2% Tween 80). On days 8, 10 and 12 following administration of 5-FU nine animals from each group were bled and then sacrificed by cervical dislocation. Spleens were removed and weighed, and complete blood cell counts performed.
Twenty-eight female Balb/C mice weighing approximately 20 grams each received a 0.4 ml i.p. injection of either physiological saline (controls), or palmitoyldeoxyguanosine (1 μmole/mouse) daily for three days. On the fourth day 5-fluorouracil (5-FU) (150 mg/kg, i.p.) was administered to all 28 of the animals. On days 5, 8 and 11 following 5-FU administration 4 (day 5) or 5 (days 8 and 11) animals from both groups were bled and then sacrificed by cervical dislocation. Spleens were removed and weighed, and complete blood cell counts performed. […]
Sixty female Balb/C mice weighing approximately 20 grams each were distributed into one of five treatment groups and treated once daily for three days by i.p. injection with 3′,5′-O—N^2-tripalmitoyl-2′-deoxyguanosine at a dose of either 1, 5, 10, 25, or 50 mg/kg/treatment in a Tween-DMSO vehicle (0.2% Tween-80 and 7.5% DMSO in physiological saline). Injection volume was 0.4 ml. An additional twelve animals (controls) received vehicle alone on those three days. On the fourth day all seventy-two animals received a single i.p. injection of 5-fluorouracil (5-FU) at a dose of 150 mg/kg. On days 7 and 10 following 5-FU administration six mice from each group were bled and then sacrificed by cervical dislocation. Six untreated mice were also bled and sacrificed to provide data on normal (basal) values. Spleens were removed and weighed, and complete blood cell counts performed.

[7] = test system: rabbits treated with cyclophosphamide; conditions: rabbit, in vivo; cited from earlier work
[8] = Ex 37: day 7 after CP 275 mg/kg i.p., 5 μmoles/mouse/day i.p. 6 days, vs saline
[9] = Ex 57: day 8 after 5-FU, pretreatment
[10] = Ex 57: day 11 after 5-FU, pretreatment
[11] = Ex 51: day 5 after CP, 2 μmoles/mouse
[12] = Ex 52: days 5 and 7 after CP, 0.2-2.0 μmoles/mouse, except 0.2 on day 5
[13] = Ex 53: day 5 after CP, palmitoylguanosine 2.0, palmitoyldeoxyguanosine 1.0 μmoles/mouse
[14] = Ex 53: day 7 after CP, palmitoylguanosine 1.0 and 2.0, palmitoyldeoxyguanosine 1.0 μmoles/mouse

Nc1nc2c(ncn2[C@@H]2O[C@H](COP(=O)(O)O)[C@@H](O)[C@H]2O)c(=O)[nH]1 [5′-guanosine monophosphate]
number of colonies formed [1]: inactive

Nc1nc2c(ncn2[C@@H]2O[C@@H]3COP(=O)(O)O[C@H]3[C@H]2O)c(=O)[nH]1 [cGMP, 3′,5′-cyclic guanosine monophosphate]
number of colonies formed [1]: increase

Nc1nc2nc[nH]c2c(=O)[nH]1 [guanine]
Neutrophils (Balb/C female mice [2]): significantly more | peripheral total white blood cells (Balb/C female mice [2]): significantly more | induced maturation into functional neutrophils [3]: prevented | spleen weight (Balb/C female mice [4]; [8]): significantly heavier spleens

Nc1nc2c(ncn2[C@@H]2O[C@H](CO)[C@@H](O)[C@H]2O)c(=O)[nH]1 [guanosine]
Neutrophils (Balb/C female mice [2]): significantly more | peripheral total white blood cells (Balb/C female mice [2]): significantly more | spleen weight (Balb/C female mice [2]; Ex 38: day 7 after CP, guanosine 5, acyl derivatives 2.5 μmoles/mouse/day in 0.2% Tween 80 i.p. 6 days, Tween 80 0.2%): No significant difference | induced maturation into functional neutrophils [3]: prevented | spleen weight (Balb/C female mice [4]; [8]): significantly heavier spleens

OC[C@H]1O[C@@H](n2cnc3c(O)ncnc32)[C@H](O)[C@@H]1O [inosine, reference compound]
induced maturation into functional neutrophils [3]: no effect

Palmitoyl-2′-Deoxyguanosine [palmitoyldeoxyguanosine]
number of myelocytes (femoral bone marrow) ([5]; 2.6 μmoles/mouse daily 4 days): significantly greater | spleen weight ([5]; 2.6 μmoles/mouse i.p. daily 4 days): significantly elevated | Lymphocytes (F344 male rats; day 10 after CP, 10 μmoles/rat): significantly elevated | Platelets (F344 male rats; day 10 after CP, 10 μmoles/rat): significantly elevated | spleen weight (F344 male rats; day 10 after CP, 10 μmoles/rat): significantly elevated | white blood cell counts (F344 male rats; days 5, 7 and 10 after CP 40 mg/kg, 10 μmoles/rat i.p. daily): significantly elevated | total neutrophil counts (F344 male rats; days 5, 7 and 10 after CP, 10 μmoles/rat): significantly elevated | platelet counts (Balb/C female mice [6]; Ex 57: day 5 after 5-FU, pretreatment 1 μmole/mouse i.p. daily 3 days): significantly elevated | platelet counts (Balb/C female mice [6]; [9]): significantly higher | total neutrophil counts (Balb/C female mice [6]; [9]): significantly higher | spleen weight (Balb/C female mice [6]; Ex 57: day 8 after 5-FU, pretreatment 1 μmole/mouse): significantly higher | lymphocyte counts (Balb/C female mice [6]; [10]): significantly higher | platelet counts (Balb/C female mice [6]; [10]): significantly higher | spleen weights (Balb/C female mice [6]; [10]): significantly higher | total neutrophil counts (Balb/C female mice [6]; [10]): significantly higher | total white blood cell counts (Balb/C female mice [6]; [10]): significantly higher | total neutrophil counts (Balb/C female mice [4]; [11]): significantly elevated | white blood cell counts (Balb/C female mice [4]; [11]): significantly elevated | spleen weight (Balb/C female mice [4]; Ex 51: day 5 after CP, 2 μmoles/mouse i.p. daily, vs Tween-80): significantly elevated | spleen weight (Balb/C female mice [4]; Ex 52: days 5 and 7 after CP, 0.2, 0.4, 1.0, 2.0 μmoles/mouse, except 0.2 on day 5): significantly elevated | total neutrophil counts (Balb/C female mice [4]; [12]): significantly elevated | white blood cell counts (Balb/C female mice [4]; [12]): significantly elevated | spleen weight (Balb/C female mice [4]; [13]): significantly elevated | total neutrophil counts (Balb/C female mice [4]; [13]): significantly elevated | white blood cell counts (Balb/C female mice [4]; [13]): significantly elevated | spleen weight (Balb/C female mice [4]; [14]): significantly elevated | total neutrophil counts (Balb/C female mice [4]; [14]): significantly elevated | white blood cell counts (Balb/C female mice [4]; [14]): significantly elevated | potency in elevating spleen weight and cell counts vs palmitoylguanosine (Balb/C female mice [4]; Ex 53: vs the same or a 2-fold greater dose of palmitoylguanosine): more potent | spleen weight (Balb/C female mice [4]; Ex 54: day 5 after CP, doses of 0.2 μmoles/mouse or greater): significantly elevated | white blood cell counts (Balb/C female mice [4]; Ex 54: day 5 after CP, doses of 0.4 μmoles/mouse or greater): significantly elevated | white blood cell counts (Balb/C female mice [4]; Ex 54: day 7 after CP, all doses 0.04-0.8 μmoles/mouse): statistically significant differences | spleen weight (Balb/C female mice [4]; Ex 54: day 7 after CP, all doses except 0.04 μmoles/mouse): significantly elevated | total neutrophil counts (Balb/C female mice [4]; Ex 54: days 5 and 7 after CP, all 6 doses 0.04-0.8 μmoles/mouse): significantly elevated

polyadenosine monophosphate
leukocyte formation [7]: failed to stimulate

polyguanosine monophosphate
leukocyte formation [7]: failed to stimulate
